In brackets after ≈: the same amount, converted by molar mass.

For three compounds, MIC results are on record in ChEMBL document CHEMBL1147106, “Antistaphylococcal activity of DX-619 alone and in combination with vancomycin, teicoplanin, and linezolid assessed by time-kill synergy testing” (2007).

Holding throughout (assay type): functional
Experiment [1] has as its system Staphylococcus aureus. As to the kind of experiment: Antistaphylococcal activity against methicillin-sensitive Staphylococcus aureus.
Experiment [2] relates to Staphylococcus aureus. Nature of the experiment: Antistaphylococcal activity against quinolone-resistant Staphylococcus aureus 508.
The subject of experiment [3] is Staphylococcus aureus. Nature of the experiment: Antistaphylococcal activity against quinolone-resistant Staphylococcus aureus 241.
The subject of experiment [4] is Staphylococcus aureus. As to the kind of experiment: Antistaphylococcal activity against vancomycin-intermediate Staphylococcus aureus 505.
Experiment [5] relates to Staphylococcus aureus. As to the kind of experiment: Antistaphylococcal activity against quinolone and methicillin-resistant Staphylococcus aureus.
Experiment [6] relates to Staphylococcus aureus. Nature of the experiment: Antistaphylococcal activity against vancomycin-intermediate Staphylococcus aureus 508.
Experiment [7] relates to Staphylococcus aureus. As to the kind of experiment: Antistaphylococcal activity against vancomycin-intermediate Staphylococcus aureus 555.
Experiment [8] deals with Staphylococcus aureus. Nature of the experiment: Antistaphylococcal activity against vancomycin-intermediate Staphylococcus aureus 507.
Experiment [9] has as its system Staphylococcus aureus. Nature of the experiment: Antistaphylococcal activity against vancomycin-resistant Staphylococcus aureus 509.
For experiment [10], the system named is Staphylococcus aureus. As to the kind of experiment: Antistaphylococcal activity against vancomycin-resistant Staphylococcus aureus 512.
Experiment [11] concerns Staphylococcus aureus. As to the kind of experiment: Antistaphylococcal activity against vancomycin-intermediate Staphylococcus aureus 504.
For experiment [12], the system named is Staphylococcus aureus. As to the kind of experiment: Antistaphylococcal activity against vancomycin-resistant Staphylococcus aureus.
Experiment [13] deals with Staphylococcus aureus. As to the kind of experiment: Antistaphylococcal activity against quinolone-resistant Staphylococcus aureus 242.
Experiment [14] has as its system Staphylococcus aureus. Nature of the experiment: Antistaphylococcal activity against quinolone-susceptible methicillin-resistant Staphylococcus aureus.
The test system of experiment [15] is Staphylococcus aureus. Nature of the experiment: Antistaphylococcal activity against vancomycin-intermediate Staphylococcus aureus 506.
Experiment [16] has as its system Staphylococcus aureus. As to the kind of experiment: Antistaphylococcal activity against quinolone-resistant Staphylococcus aureus 261.
For experiment [17], the system named is Staphylococcus aureus. Nature of the experiment: Antistaphylococcal activity against vancomycin-intermediate Staphylococcus aureus.
In experiment [18] the test system is Staphylococcus aureus. Nature of the experiment: Antistaphylococcal activity against vancomycin-resistant Staphylococcus aureus 510.

Usually MIC stands for the lowest concentration that inhibits growth of the organism. As to `COc1c(N2CC[C@@H](C3(N)CC3)C2)ccc2c(=O)c(C(=O)O)cn([C@@H]3C[C@@H]3F)c12`, the MIC worked out at 4 ng/mL (≈ 0.00996 µM) in [1]; 4 ng/mL (≈ 0.00996 µM) in experiment [2]; 4 ng/mL (≈ 0.00996 µM) in [3]; 4 ng/mL (≈ 0.00996 µM) in experiment [4]; 0.06 µg/mL (≈ 0.149 µM) in [5]; 4 ng/mL (≈ 0.00996 µM) in experiment [6]. Also, the MIC was 0.06 µg/mL (≈ 0.149 µM) in [7]; 0.06 µg/mL (≈ 0.149 µM) in experiment [8]; 0.06 µg/mL (≈ 0.149 µM) in experiment [9]; 0.06 µg/mL (≈ 0.149 µM) in experiment [10]; 0.06 µg/mL (≈ 0.149 µM) in experiment [11]; 0.125 µg/mL (≈ 0.311 µM) in experiment [12]. Also, the MIC in experiment [13] turned out to be 4 ng/mL (≈ 0.00996 µM); in [14], 8 ng/mL (≈ 0.0199 µM); in [15], 0.06 µg/mL (≈ 0.149 µM); in experiment [16] it was 4 ng/mL (≈ 0.00996 µM); in experiment [17], 0.016 µg/mL (≈ 0.0399 µM); in [18], 0.06 µg/mL (≈ 0.149 µM).

In the case of `C[C@H]1COc2c(N3CCN(C)CC3)c(F)cc3c(=O)c(C(=O)O)cn1c23.C[C@H]1COc2c(N3CCN(C)CC3)c(F)cc3c(=O)c(C(=O)O)cn1c23.O` [LEVOFLOXACIN], the MIC in experiment [5] is at least 4 µg/mL.

With `CN[C@H](CC(C)C)C(=O)N[C@H]1C(=O)N[C@@H](CC(N)=O)C(=O)N[C@H]2C(=O)N[C@H]3C(=O)N[C@H](C(=O)N[C@H](C(=O)O)c4cc(O)cc(O)c4-c4cc3ccc4O)[C@H](O)c3ccc(c(Cl)c3)Oc3cc2cc(c3O[C@@H]2O[C@H](CO)[C@@H](O)[C@H](O)[C@H]2O[C@H]2C[C@](C)(N)[C@H](O)[C@H](C)O2)Oc2ccc(cc2Cl)[C@H]1O` [VANCOMYCIN], the MIC was 32 µg/mL (≈ 22.1 µM) in experiment [12] and 0.05 µg/mL (≈ 0.0345 µM) in experiment [18].
